The term IC50 denotes the concentration needed to halve the response being measured. Read a high IC50 as weaker potency in that assay. One may read the Ki as a dissociation constant, usually derived from enzyme kinetics or from competition with a known ligand.

The results in this text go back to patent US10206937B2, “Boronic acid derivatives and therapeutic uses thereof” (Qpex Biopharma, Inc., priority 2014, dated 2019).

The target of one assay is T1, VIM-1 (Pseudomonas aeruginosa, UniProt A0A0F7KYQ8).
T1 construct: made in house; host or cells: ECM6711 strain carrying pUCP24-VIM-1 plasmid; culture supernatant used unpurified
Description: biochemical. The settings on record: cleavage of nitrocefin (200 uM) by VIM-1 supernatant.

The target in assay [1] is T2, NDM-1 (Klebsiella pneumoniae, UniProt C7C422). Description: biochemical. To be noted: cleavage of imipenem (100 uM) by NDM-1; read-out: Ki, Imipenem.
T2 sequence (C7C422 29-270, looked up, species assumed): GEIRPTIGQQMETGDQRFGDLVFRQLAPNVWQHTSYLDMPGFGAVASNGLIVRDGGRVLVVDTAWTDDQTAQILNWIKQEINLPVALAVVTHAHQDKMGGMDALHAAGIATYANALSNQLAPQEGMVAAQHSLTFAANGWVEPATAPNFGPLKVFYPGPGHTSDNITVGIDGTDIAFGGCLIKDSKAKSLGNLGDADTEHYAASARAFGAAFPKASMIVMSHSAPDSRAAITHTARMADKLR
Assay [2] addresses T3, purified class A, C and D enzymes (UniProt Q6XEC0).
T3 construct: rows headed: Ki (OXA-48, NCF); other: purified OXA-48; nitrocefin reporter substrate
The format is biochemical. To be noted: read-out: Ki (OXA-48, NCF); purified OXA-48; nitrocefin reporter substrate.

In assay [3] the target is purified class A, C and D enzymes (Escherichia coli, UniProt Q9L5C7). The format is biochemical. To be noted: purified CTX-M-14; nitrocefin reporter substrate.
Sequence of purified class A, C and D enzymes (Escherichia coli, UniProt Q9L5C7) (Q9L5C7 entry or part of it): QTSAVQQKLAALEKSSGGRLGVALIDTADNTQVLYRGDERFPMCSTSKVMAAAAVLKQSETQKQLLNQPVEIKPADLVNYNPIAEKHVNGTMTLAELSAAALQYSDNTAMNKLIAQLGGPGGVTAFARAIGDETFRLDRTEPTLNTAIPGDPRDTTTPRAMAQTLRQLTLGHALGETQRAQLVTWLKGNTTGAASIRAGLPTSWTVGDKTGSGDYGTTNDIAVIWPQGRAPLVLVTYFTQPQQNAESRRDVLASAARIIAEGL
Assay [4] addresses T4, purified class A, C and D enzymes (UniProt P0AD64, L31Q/G234S/E235K, species not given).
T4 construct: Ki (SHV-12, NCF); other: purified SHV-12; nitrocefin reporter substrate
T4 sequence (P0AD64 1-286 L31Q/G234S/E235K): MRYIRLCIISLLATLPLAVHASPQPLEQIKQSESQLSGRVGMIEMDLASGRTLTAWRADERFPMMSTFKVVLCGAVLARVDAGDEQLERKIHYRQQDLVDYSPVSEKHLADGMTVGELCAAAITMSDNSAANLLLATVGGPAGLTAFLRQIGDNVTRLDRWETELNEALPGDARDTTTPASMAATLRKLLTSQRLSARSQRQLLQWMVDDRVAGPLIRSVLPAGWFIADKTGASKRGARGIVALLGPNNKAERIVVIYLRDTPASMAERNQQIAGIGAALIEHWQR
The format is biochemical. To be noted: read-out: Ki (SHV-12, NCF); purified SHV-12; nitrocefin reporter substrate.

Assay [5] has as its target T5, purified class A, C and D enzymes (UniProt Q9F663).
T5 construct: rows headed: Ki (KPC-2, NCF); other: purified KPC-2; nitrocefin reporter substrate
The assay is classed as biochemical. To be noted: read-out: Ki (KPC-2, NCF); purified KPC-2; nitrocefin reporter substrate.

In assay [6] the target is purified class A, C and D enzymes (Enterobacter cloacae, UniProt P05364). The assay is classed as biochemical. The settings on record: purified P99/AmpC of ECL; nitrocefin reporter substrate.
Sequence of purified class A, C and D enzymes (Enterobacter cloacae, UniProt P05364) (P05364 21-381): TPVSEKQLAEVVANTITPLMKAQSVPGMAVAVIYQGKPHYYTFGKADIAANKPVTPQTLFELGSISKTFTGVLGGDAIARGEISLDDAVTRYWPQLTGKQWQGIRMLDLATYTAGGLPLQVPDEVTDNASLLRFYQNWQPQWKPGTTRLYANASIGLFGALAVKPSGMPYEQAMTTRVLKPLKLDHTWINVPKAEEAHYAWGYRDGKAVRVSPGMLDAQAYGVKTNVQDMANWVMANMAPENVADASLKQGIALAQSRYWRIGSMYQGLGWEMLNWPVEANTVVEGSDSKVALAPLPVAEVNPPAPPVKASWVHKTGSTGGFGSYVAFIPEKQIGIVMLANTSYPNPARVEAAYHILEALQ
Assay [7] concerns the target T2, NDM-1. Description: Inhibition of purified class B carbapenemase NDM-1 (Ki, imipenem substrate). To be noted: NDM-1, substrate imipenem; read-out: Ki NDM-1, Imipenem. The assay is classed as biochemical.

`CC(C)Oc1ccc2c(c1C(=O)O)OB(O)[C@@H](Sc1nncs1)C2` [Compound 85, (3R)-2-hydroxy-7-isopropoxy-3-(1,3,4-thiadiazol-2-ylsulfanyl)-3,4-dihydro-1,2-benzoxaborinine-8-carboxylic acid] had a 50% inhibitory concentration (IC50) against VIM-1 of under 1000 nM. The inhibition constant Ki on NDM-1 [1] was over 100 nM; in assay [2] it was under 100 nM; in assay [4], under 100 nM; in assay [5] it was 100 to 1000 nM; at NDM-1 [7] it was over 100 nM. The “Ki (CTX-M-14, NCF)” value in assay [3] was “X (Less than 0.1 μM)”. Moreover, the “Ki (P99/AmpC of ECL, NCF)” value in assay [6] is given as “Y (0.1 μM to 1 μM)”.
As to `N#CCOc1ccc2c(c1C(=O)O)OB(O)[C@@H](Sc1nncs1)C2` [Compound 86, (3R)-7-(cyanomethoxy)-2-hydroxy-3-(1,3,4-thiadiazol-2-ylsulfanyl)-3,4-dihydro-1,2-benzoxaborinine-8-carboxylic acid], on VIM-1, the 50% inhibitory concentration (IC50) is under 1000 nM. Moreover, the Ki was over 100 nM at NDM-1 [1]; under 100 nM in assay [2]; under 100 nM in assay [4]; 100 to 1000 nM in assay [5]; over 100 nM on NDM-1 [7]. Moreover, the “Ki (CTX-M-14, NCF)” value in assay [3] is recorded as “X (Less than 0.1 μM)”. Moreover, the “Ki (P99/AmpC of ECL, NCF)” value in assay [6] is “Z (Greater than 1 μM)”.
The compound `O=C(O)c1c(OCCF)ccc2c1OB(O)[C@@H](Sc1nncs1)C2` [Compound 87, (3R)-7-(2-fluoroethoxy)-2-hydroxy-3-(1,3,4-thiadiazol-2-ylsulfanyl)-3,4-dihydro-1,2-benzoxaborinine-8-carboxylic acid] registered a half-inhibitory concentration (IC50) against VIM-1 of under 1000 nM. In addition, the Ki at NDM-1 [1] was over 100 nM; in assay [2] it was under 100 nM; in assay [4], under 100 nM; in assay [5], 100 to 1000 nM; at NDM-1 [7], 10 to 100 nM. Moreover, the “Ki (CTX-M-14, NCF)” value in assay [3] was “X (Less than 0.1 μM)”. Also, in assay [6], the “Ki (P99/AmpC of ECL, NCF)” value is “Y (0.1 μM to 1 μM)”.
As for `CC(C)COc1ccc2c(c1C(=O)O)OB(O)[C@@H](Sc1nncs1)C2` [Compound 88, (3R)-2-hydroxy-7-isobutoxy-3-(1,3,4-thiadiazol-2-ylsulfanyl)-3,4-dihydro-1,2-benzoxaborinine-8-carboxylic acid], on VIM-1, the IC50 is under 1000 nM. Besides, the Ki was 10 to 100 nM at NDM-1 [1]; under 100 nM in assay [2]; under 100 nM in assay [4]; 100 to 1000 nM in assay [5]; 10 to 100 nM on NDM-1 [7]. Further, the “Ki (CTX-M-14, NCF)” value in assay [3] was “X (Less than 0.1 μM)”. The “Ki (P99/AmpC of ECL, NCF)” value in assay [6] is given as “Y (0.1 μM to 1 μM)”.
For the compound `COCCOc1ccc2c(c1C(=O)O)OB(O)[C@@H](Sc1nncs1)C2` [Compound 89, (3R)-2-hydroxy-7-(2-methoxyethoxy)-3-(1,3,4-thiadiazol-2-ylsulfanyl)-3,4-dihydro-1,2-benzoxaborinine-8-carboxylic acid], the IC50 at VIM-1 was under 1000 nM. Besides, the Ki on NDM-1 [1] was 10 to 100 nM; in assay [2], under 100 nM; in assay [4] it was under 100 nM; in assay [5], 100 to 1000 nM; on NDM-1 [7] it was 10 to 100 nM. The “Ki (CTX-M-14, NCF)” value in assay [3] is “X (Less than 0.1 μM)”. In assay [6], the “Ki (P99/AmpC of ECL, NCF)” value is recorded as “Z (Greater than 1 μM)”.
Consider `Nc1nnc(S[C@H]2Cc3ccc(OCC(F)F)c(C(=O)O)c3OB2O)s1` [Compound 90, (3R)-3-[(5-amino-1,3,4-thiadiazol-2-yl)sulfanyl]-7-(2,2-difluoroethoxy)-2-hydroxy-3,4-dihydro-1,2-benzoxaborinine-8-carboxylic acid], for which the 50% inhibitory concentration (IC50) against VIM-1 is under 1000 nM. Also, the Ki is 10 to 100 nM at NDM-1 [1]; under 100 nM in assay [2]; under 100 nM in assay [4]; under 100 nM in assay [5]; 10 to 100 nM on NDM-1 [7]. The “Ki (CTX-M-14, NCF)” value in assay [3] is given as “X (Less than 0.1 μM)”. The “Ki (P99/AmpC of ECL, NCF)” value in assay [6] is recorded as “Z (Greater than 1 μM)”.
On VIM-1, `O=C(O)c1c(OCC(F)F)ccc2c1OB(O)[C@@H](Sc1nncs1)C2` [Compound 91, (3R)-7-(2,2-difluoroethoxy)-2-hydroxy-3-(1,3,4-thiadiazol-2-ylsulfanyl)-3,4-dihydro-1,2-benzoxaborinine-8-carboxylic acid] came in with a concentration for half-maximal inhibition (IC50) of under 1000 nM. The Ki at NDM-1 [1] was 10 to 100 nM; in assay [2], under 100 nM; in assay [4], under 100 nM; in assay [5], 100 to 1000 nM; on NDM-1 [7] it was 10 to 100 nM. Also, the “Ki (CTX-M-14, NCF)” value in assay [3] was “X (Less than 0.1 μM)”. In addition, in assay [6], the “Ki (P99/AmpC of ECL, NCF)” value is reported as “Y (0.1 μM to 1 μM)”.
For the compound `COc1ccc2c(c1C(=O)O)OB(O)[C@@H](Sc1nnc(NC3CNC3)s1)C2` [Compound 96, (3R)-3-[[5-(azetidin-3-ylamino)-1,3,4-thiadiazol-2-yl]sulfanyl]-2-hydroxy-7-methoxy-3,4-dihydro-1,2-benzoxaborinine-8-carboxylic acid], at VIM-1, the 50% inhibitory concentration (IC50) was under 1000 nM. Besides, the Ki at NDM-1 [1] was under 10 nM; in assay [2], under 100 nM; in assay [4], under 100 nM; in assay [5], 100 to 1000 nM; on NDM-1 [7] it was under 10 nM. In addition, the “Ki (CTX-M-14, NCF)” value in assay [3] is given as “X (Less than 0.1 μM)”. Also, in assay [6], the “Ki (P99/AmpC of ECL, NCF)” value is on record as “Y (0.1 μM to 1 μM)”.
As for `COc1ccc2c(c1C(=O)O)OB(O)[C@@H](Sc1nnc(NCCN3CCNCC3)s1)C2` [Compound 98, (3R)-2-hydroxy-7-methoxy-3-[[5-(2-piperazin-1-ylethylamino)-1,3,4-thiadiazol-2-yl]sulfanyl]-3,4-dihydro-1,2-benzoxaborinine-8-carboxylic acid], at VIM-1, the IC50 is under 1000 nM. Also, the Ki on NDM-1 [1] was 10 to 100 nM; in assay [2] it was under 100 nM; in assay [4], under 100 nM; in assay [5] it was 100 to 1000 nM; at NDM-1 [7] it was 10 to 100 nM. Moreover, the “Ki (CTX-M-14, NCF)” value in assay [3] is reported as “X (Less than 0.1 μM)”. For the same compound, the “Ki (P99/AmpC of ECL, NCF)” value in assay [6] was “Y (0.1 μM to 1 μM)”.
As to `O=C(O)c1cccc2c1OB(O)[C@@H](Sc1nnc(NC3CNC3)s1)C2` [Compound 99, (3R)-3-[[5-(azetidin-3-ylamino)-1,3,4-thiadiazol-2-yl]sulfanyl]-2-hydroxy-3,4-dihydro-1,2-benzoxaborinine-8-carboxylic acid], the concentration for half-maximal inhibition (IC50) against VIM-1 is under 1000 nM. Further, the Ki at NDM-1 [1] was under 10 nM; in assay [2], under 100 nM; in assay [4] it was under 100 nM; in assay [5], 100 to 1000 nM; on NDM-1 [7], under 10 nM. In addition, the “Ki (CTX-M-14, NCF)” value in assay [3] is “X (Less than 0.1 μM)”. Besides, the “Ki (P99/AmpC of ECL, NCF)” value in assay [6] is on record as “X (Less than 0.1 μM)”.
As to `COc1ccc2c(c1C(=O)O)OB(O)[C@@H](Sc1nnc(NCCCN)s1)C2` [Compound 100, (3R)-3-[[5-(3-aminopropylamino)-1,3,4-thiadiazol-2-yl]sulfanyl]-2-hydroxy-7-methoxy-3,4-dihydro-1,2-benzoxaborinine-8-carboxylic acid], the 50% inhibitory concentration (IC50) at VIM-1 was under 1000 nM. Besides, the Ki is under 10 nM at NDM-1 [1]; under 100 nM in assay [2]; under 100 nM in assay [4]; 100 to 1000 nM in assay [5]; under 10 nM at NDM-1 [7]. The “Ki (CTX-M-14, NCF)” value in assay [3] is “X (Less than 0.1 μM)”. Moreover, in assay [6], the “Ki (P99/AmpC of ECL, NCF)” value is “X (Less than 0.1 μM)”.
